Experimental findings from PubChem BioAssay (NCI) are described below.

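Growth conditions: 96-well plates. Treatment: test compound, 48 hours, 5 concentrations. Analysis: linear interpolation between bracketing concentrations; unreached endpoints set to highest concentration. GI50 = concentration required for 50% inhibition of growth. TGI is the concentration that stops growth completely.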

This assay deals with MDA-MB-468 breast. As to the kind of experiment: NCI tumour cell line growth inhibition, 48 h.
For `CN(C)c1cc2c(Nc3ccc4c(cnn4Cc4ccccc4)c3)ncnc2cn1`, the GI50 was 136 nM and the TGI is 1.16 µM.

On to `[Cl][Hg][c]1ccc2ccccc2c1`, for which the GI50 was 1460 nM and the TGI was determined as 2.84 µM.

Consider `CSc1nnc(-c2cc3c([nH]c4ccccc43)c(-c3cccc(O)c3)n2)n1-c1ccc(C)cc1`, for which the GI50 is 3700 nM and the TGI came to 33.7 µM.

With `CCN(CC)S(=O)(=O)c1cccc(-c2ccc3c(NC(=O)C4CC4)n[nH]c3c2)c1`, the GI50 is 1220 nM and the TGI is over 6.25 µM.

On to `COc1ccc(/C=C2\COc3ccc(O)c(O)c3C2=O)cc1OC`, for which the GI50 is 1580 nM and the TGI amounted to 4.88 µM.

For the compound `Cc1nc2sc(C(=O)Nc3ccccc3)c(N)c2cc1C(O)c1ccccc1` (configuration not stated), the GI50 was 233 nM and the TGI is over 65.3 µM.

In the case of `CN(C)CC1C(=O)O[C@H]2[C@H]1CC/C(COC(=O)NCc1ccc(Cn3c(=O)sn(CCCI)c3=O)cc1)=C\CC[C@@]1(C)O[C@@H]21` (some centres not stated), the GI50 is 700 nM and the TGI was found to be 1.6 µM.

On to `COCCNCc1ccc(-c2cc3nccc(Oc4ccc(NC(=O)C5(C(=O)Nc6ccc(F)cc6)CC5)cc4F)c3s2)nc1`, for which the GI50 was 1740 nM and the TGI turned out to be 3.41 µM.

For the compound `C=C1C(=O)O[C@H]2[C@H]1CC/C(COC(=O)CCCCCCCC(=O)OC/C1=C/CC[C@@]3(C)O[C@H]3[C@H]3OC(=O)C(=C)[C@@H]3CC1)=C\CC[C@@]1(C)O[C@@H]21`, the GI50 was 2370 nM and the TGI amounted to 6.46 µM.

As to `OC(CN1CCCC2CCCCC21)c1cc2ccccc2c2ccccc12` (configuration not stated), the GI50 was 1730 nM and the TGI worked out at 3.62 µM.

As for `Oc1ccc(Cl)cc1Sc1cc(Cl)ccc1O`, the GI50 was 3130 nM and the TGI came to 9.12 µM.

Consider `COc1ccc2c(CCCc3ccc(Cl)cc3Cl)c3[n+](cc2c1OC)CCc1cc2c(cc1-3)OCO2`, for which the GI50 is 195 nM and the TGI is 0.894 µM.

`Cn1cc(C2=C(c3cc[nH]c3)C(=O)NC2=O)c2ccccc21`: the GI50 is 11900 nM and the TGI was over 25 µM.

As to `O=C(N=Nc1c(Cl)c(O)c2ccccc2c1O)C(=O)Nc1cccc(C(F)(F)F)c1`, the GI50 was 4160 nM and the TGI was determined as 15.3 µM.

`COc1cc2c3c(n([C@@H]4CCOC4)c(=O)c2cc1OC)-c1cc2c(cc1C3=O)OCO2`: the GI50 is under 10 nM and the TGI amounted to 0.0949 µM.

On to `Cc1cc(Cl)nc(N(CCCNc2ccnc3cc(Cl)ccc23)Cc2cccs2)n1`, for which the GI50 was 1040 nM and the TGI is 4.25 µM.

`Cc1nc2c(O)c3c(c(O)c2nc1C)C1C=CC3CC1`: the GI50 was 559 nM and the TGI stood at 1.97 µM.

Regarding `O=C(NCc1ccco1)C1CCN(S(=O)(=O)c2ccc(Cl)cc2)CC1`, the GI50 was 46000 nM and the TGI was over 100 µM.

As for `CC(C)c1[nH]nc2c(NCc3ccc(-c4ccccn4)cc3)nc(SCCN(C)C)nc12`, the GI50 was under 12.9 nM and the TGI is under 0.0238 µM.

`CC(=O)O[C@@H]1C2=C(C)C3(CC3)[C@@](C)(O)C(=O)C2=C[C@@]1(C)CO`: the GI50 is 209 nM and the TGI amounted to 0.591 µM.

`COc1c(B(O)O)cccc1-c1nc2ccc3[nH]ncc3c2c2c1CCCC2`: the GI50 is 1690 nM and the TGI turned out to be 4.94 µM.

`C(=C\c1ccncc1)/c1ccncc1`: the GI50 is over 100000 nM and the TGI was over 100 µM.

With `COc1cccc(N2CCN(c3ncnc4cc[nH]c34)CC2)c1`, the GI50 is 215 nM and the TGI was 10.2 µM.

For the compound `CCn1cc(C(=O)N/N=C/c2cccs2)c(=O)c2cc(F)c(N3CCNC(C)C3)c(F)c21` (configuration not stated), the GI50 was 1660 nM and the TGI amounted to 3.27 µM.

Take `COc1cc2c(NC3CCN(C(C)C)CC3)nc(C3CCCCC3)nc2cc1OCCCN1CCCC1`: the GI50 was 1420 nM and the TGI came to 3.17 µM.

In the case of `O=C(NNc1nc2cc(F)cc(F)c2n2cccc12)c1cnccn1`, the GI50 is 331 nM and the TGI worked out at 2.89 µM.
